In publication PMC9143043, “Synthesis and Biological Evaluation of 5′-O-Fatty Acyl Ester Derivatives of 3′-Fluoro-2′,3′-dideoxythymidine as Potential Anti-HIV Microbicides” (Molecules, 2022):
Entries after “also recorded” stand apart in the source; their conditions may differ. Where two headings read alike, the source gives them in different places.

Assays:
Assay type in all cases: cell-based
[1] = Cytotoxicity assay (MTS); conditions: human, HeLa cells (ATCC CCL-2.1)
[2] = test system: HIV-1 strain IIIB (lymphocytotropic strain); assay: Single-round infection assay, cell-free X4 virus (lymphocytotropic strain); conditions: Human immunodeficiency virus 1, IIIB
Protocol: (§1) Anti-HIV activities of the compounds were evaluated according to the previously reported procedure. In summary, the HeLa (Human cervical carcinoma: ATCC CCL-2.1) cell line was used to measure the inactivation of both the cell-free virus preparations and virus-infected cell preparations. The cells were plated in culture plates 24 h prior to each experiment. Cell-free viral preparations of HIV-1 strains IIIB (lymphocytotropic strain) and BaL (monocytotropic strain) were used for the cell-free assay. For the cell-associated assay, the SulT1 cells were infected with IIIB virus 5 days prior to the experiment. Cell-free virus and virus-infected cells were mixed with different compounds and diluted to make different concentrations. The mixture was further diluted with the buffer and added to the HeLa cells.

[3] = test system: HIV-1 strain BaL (monocytotropic strain); assay: Single-round infection assay, cell-free R5 virus (monocytotropic strain); conditions: Human immunodeficiency virus 1, BAL
Protocol: as §1

[4] = test system: cell-associated HIV-1 IIIB (infected SulT1 cells); assay: Cell-associated transmission assay (IIIB); conditions: for EC50: Human immunodeficiency virus 1, IIIB
Protocol: as §1

[5] = test system: HIV-1; assay: Anti-HIV activity overall (cell-free and cell-associated assays) and antiviral index
Text: Table 2, Table 3 and Table 4 illustrate the anti-HIV-1 activities against the cell-free, cell-associated, and multidrug-resistant virus and sperm inhibiting properties of the selected compounds. In summary, the anti-HIV activity of 5′-substituted derivatives of FLT and AZT (5–18) was dependent on the nature of the 5′-substituent. […] None of the other esters were active against cell-associated virus. […] The difference in the activity of fatty acyl derivatives of FLT compared to each other and FLT may be due to their differences in the rate of uptake and intracellular hydrolysis.
By design, the ester moiety in the conjugates needs to be hydrolyzed to render parent nucleosides and fatty acids to produce anti-HIV activity. The anti-HIV activities of 5′-O-ether substituted FLT and AZT (3 and 4, Scheme 2) with a stable tetradecanyl (myristyl) group were compared with hydrolyzable 5′-O-ester substituted FLT and AZT (6 and 7).
as §1

[6] = test system: HIV-1 94US3393IN (B-Wild Type); assay: PBMC multi-round infection assay, clinical isolate 94US3393IN; conditions: Human immunodeficiency virus 1
Protocol: (§2) Based on a preliminary screening, conjugates 5 and 8 were evaluated for their ability to inhibit a drug-resistant virus in a peripheral blood mononuclear cell (PBMC) assay. In this assay, FLT, 5, and 8 were tested against B- and C-wild type and A-17 and 4755–5 multidrug-resistant (MDR) clinical isolates of HIV-1, where compounds were incubated with PBMCs for 6 h and then washed off before the addition of the virus and further culture for 7 days.
(§3) For the assessment of compounds against the wild type (WT; R5; clones = 94US3393IN [B subtype] and 98USMSC5016 [C subtype]) and drug-resistant (clones = 4755−5 and A17) HIV-1 clinical isolates, PHA-P stimulated cells from at least two normal donors were pooled, diluted in fresh media, and plated in the interior wells of a 96-well round-bottom microplate. Pooling PBMCs from more than one donor was used to minimize the variability observed between the individual donors, which results from the quantitative and qualitative differences in HIV infection and overall response to the PHA and IL-2 of primary lymphocyte populations. Each plate contained virus/cell control wells (cells + virus), experimental wells (drug + cells + virus), and compound control wells (drug + media, no cells, necessary for MTS monitoring of cytotoxicity). Test drug dilutions were prepared in microtiter tubes, and each concentration was placed in appropriate wells. Following the addition of the drug dilutions to the PBMCs, a predetermined dilution of virus stock was then placed in each test well (final MOI ≅ 0.1). Because HIV-1 is not cytopathic to PBMCs, the same assay plate can be used for both the antiviral efficacy and cytotoxicity measurements. Compounds were incubated with virus and cells in a 96-well format for 6 h. The cells were then washed by removing 75% of the medium (150 μL) and replacing it with 150 μL of fresh (no drug) medium. The plates were then centrifuged (∼200 g) for 10 min, after which 150 μL of the medium was removed, and an additional 150 μL of fresh medium was added to each well and further incubated for 6 days or until peak reverse transcriptase (RT) activity was detected. A microtiter plate-based RT reaction was utilized. Incorporated radioactivity (counts per minute, CPM) was quantified using standard liquid scintillation techniques. Compound IC50 (50%, inhibition of virus replication) was calculated using statistical software and regression analysis. A cellular uptake study was conducted for fluorescence conjugates 23 and 24 using a previously published procedure with minor modifications. All of the experiments were conducted in triplicate.

[7] = test system: HIV-1 98USMSC5016 (C-Wild Type); assay: PBMC multi-round infection assay, clinical isolate 98USMSC5016; conditions: Human immunodeficiency virus 1
Protocol: as §2, §3

[8] = test system: HIV-1 A-17 MDR (B-NNRTI); assay: PBMC multi-round infection assay, resistant isolate A-17; conditions: Human immunodeficiency virus 1, PBMC
Protocol: as §2, §3

[9] = test system: HIV-1 4755-5 MDR (B-MDR); assay: PBMC multi-round infection assay, resistant isolate 4755-5; conditions: Human immunodeficiency virus 1, PBMC
Protocol: as §2, §3

[10] = Table 2, MTS, 50% effective concentration
[11] = read-out: (X4) EC50, Table 2, single-round infection assay
[12] = read-out: (R5) EC50, Table 2, single-round infection assay
[13] = read-out: (CA) EC50, Table 2, cell-associated transmission assay (IIIB)
[14] = Table 3, conjugates vs physical mixtures
[15] = Table 2, single-round infection assay, read-out: (X4) EC50
[16] = Table 3, viral entry inhibition assay, read-out: (X4) EC50
[17] = Table 2, single-round infection assay, read-out: (R5) EC50
[18] = Table 3, viral entry inhibition assay, read-out: (R5) EC50
[19] = read-out: (CA) EC50, Table 3, cell-to-cell transmission assay (IIIB)
[20] = read-out: (X4) EC50, Table 3, viral entry inhibition assay
[21] = read-out: (R5) EC50, Table 3, viral entry inhibition assay

Row | Compound | EC50 [1, 10] [µM] | EC50 [2, 11] [µM] | EC50 [3, 12] [µM] | EC50 [4, 13] [µM] | further results
1 | CCCCCCCCCCCCC(OC)C(=O)OC[C@H]1O[C@@H](n2cc(C)c(=O)[nH]c2=O)C[C@@H]1F (mixture of isomers) [Compound 13, (±)-3′-Fluoro-2′,3′-dideoxy-5′-O-(2-methoxyteradecanoyl)thymidine] | > 206 | 1 | 0.2 | > 206 | anti-HIV activity (in words) [5]: significant anti-HIV activity at noncytotoxic concentrations
2 | CCCCCCCCCCCCC(OC)C(=O)OC[C@H]1O[C@@H](n2cc(C)c(=O)[nH]c2=O)C[C@@H]1N=[N+]=[N-] (mixture of isomers) [Compound 14, (±)-3′-Azido-2′,3′-dideoxy-5′-O-(2-methoxyteradecanoyl)thymidine] | > 197 | 9.7 | 6.7 | > 197 | –
3 | Cc1cn([C@H]2C[C@H](N=[N+]=[N-])[C@@H](CO)O2)c(=O)[nH]c1=O [AZT, 3′-azido-2′,3′-dideoxythymidine, reference compound] | > 375 | – | – | > 375 | EC50 [1, 14]: > 374 µM; EC50 [2, 15]: 10.9 µM; EC50 [2, 16]: 10.9 µM; EC50 [3, 17]: 14.2 µM; EC50 [3, 18]: 14.2 µM; activity against cell-associated virus (in words) [4]: only inconsistently and moderately active; EC50 [4, 19]: > 374 µM
4 | CCCCCCCCCCCCCCOCC1OC(n2cc(C)c(=O)[nH]c2=O)CC1F (stereo not shown) [Compound 3, 3′-Fluoro-2′,3′-dideoxy-5′-O-(tetradecanyl)thymidine] | 179 | 180 | 176 | > 227 | anti-HIV activity (in words) [5]: significantly less potent than the corresponding ester derivatives
5 | CCCCCCCCCCCCCCOCC1OC(n2cc(C)c(=O)[nH]c2=O)CC1N=[N+]=[N-] (stereo not shown) [Compound 4, 3′-Azido-2′,3′-dideoxy-5′-O-(tetradecanyl)thymidine] | 205 | 125 | 27.6 | > 216 | anti-HIV activity (in words) [5]: significantly less potent than the corresponding ester derivatives
6 | CCCCCCCCCCCCCC(=O)OC[C@H]1O[C@@H](n2cc(C)c(=O)[nH]c2=O)C[C@@H]1N=[N+]=[N-] [Compound 7] | > 629 | 3.1 | 5 | > 629 | EC50 [1, 14]: > 629 µM; EC50 [2, 20]: 3.1 µM; EC50 [3, 21]: 5 µM; EC50 [4, 19]: > 629 µM
7 | CCSCCCCCCCCCCCC(=O)OC[C@H]1O[C@@H](n2cc(C)c(=O)[nH]c2=O)C[C@@H]1N=[N+]=[N-] [Compound 9] | > 101 | 7.7 | 5.2 | 90.7 | –
8 | CCCCCCCCCCCCCCC(=O)OC[C@H]1O[C@@H](n2cc(C)c(=O)[nH]c2=O)C[C@@H]1N=[N+]=[N-] [Compound 10] | > 611 | 17.9 | 4.5 | > 611 | –
9 | Cc1cn([C@H]2C[C@H](F)[C@@H](COC(=O)CCCCCCCCCCCBr)O2)c(=O)[nH]c1=O [Compound 11] | > 198 | 1.8 | < 0.2 | > 198 | –
10 | Cc1cn([C@H]2C[C@H](N=[N+]=[N-])[C@@H](COC(=O)CCCCCCCCCCCBr)O2)c(=O)[nH]c1=O [Compound 12] | > 190 | 14.8 | 4.6 | > 190 | EC50 [1, 14]: > 190 µM; EC50 [2, 20]: 14.8 µM; EC50 [3, 21]: 4.6 µM; EC50 [4, 19]: > 190 µM
11 | CCCCCSCCCCCCCC(=O)OC[C@H]1O[C@@H](n2cc(C)c(=O)[nH]c2=O)C[C@@H]1F [Compound 15] | > 64 | 11.4 | 4.4 | > 64 | –
12 | CCCCCSCCCCCCCC(=O)OC[C@H]1O[C@@H](n2cc(C)c(=O)[nH]c2=O)C[C@@H]1N=[N+]=[N-] [Compound 16] | > 202 | 9.3 | 12.9 | > 202 | –
13 | CCCCCCCCCCOCCC(=O)OC[C@H]1O[C@@H](n2cc(C)c(=O)[nH]c2=O)C[C@@H]1N=[N+]=[N-] [Compound 17] | > 209 | 6.7 | 2.1 | > 209 | –
14 | CCCCCOCCCCCCCC(=O)OC[C@H]1O[C@@H](n2cc(C)c(=O)[nH]c2=O)C[C@@H]1N=[N+]=[N-] [Compound 18] | > 209 | 4.8 | 6.1 | > 209 | –
15 | Cc1cn(C2CC(F)C(COC(=O)CCCCCCCCCCCN)O2)c(=O)[nH]c1=O (stereo not shown) [Compound 22, 3′-Fluoro-2′,3′-dideoxy-5′-O-(12-aminododecanoyl)thymidine] | > 226 | 3.4 | 1.6 | > 227 | anti-HIV activity (in words) [5]: comparable to other fatty acyl derivatives of FLT
16 | Cc1cn([C@H]2C[C@H](F)[C@@H](CO)O2)c(=O)[nH]c1=O [FLT, 3′-fluoro-2′,3′-dideoxythymidine] | > 410 | – | – | > 410 | EC50 [1, 14]: > 410 µM; EC50 [2, 15]: 0.8 µM; EC50 [2, 16]: 0.8 µM; EC50 [3, 17]: 0.4 µM; EC50 [3, 18]: 0.4 µM; activity against cell-associated virus (in words) [4]: only inconsistently and moderately active; also recorded: not active at all; EC50 [4, 19]: > 410 µM; IC50 [6]: 2 nM; IC90 [6]: 20.4 nM; IC50 [7]: 2 nM; IC90 [7]: 12.3 nM; IC50 [8]: 26 nM; IC90 [8]: 87.2 nM; IC50 [9]: 107 nM; IC90 [9]: 1060 nM
